The text below walks through data of patent publication US5760240A, “Taxoid synthesis” (The Scripps Research Institute, priority 1995, dated 1998).

One data set deals with HT-29. Put plainly: Cytotoxicity against tumor cell lines: HT-29. Particulars: Homo sapiens; cell line HT-29. The class given is cell-based.
For a further data set, the system named is Ovcar 3. In words: Cytotoxicity against tumor cell lines: Ovcar 3. Particulars: Homo sapiens; cell line Ovcar 3. The data set is classed as cell-based.
A further data set deals with UCLA-P3. In words: Cytotoxicity against tumor cell lines: UCLA-P3. Particulars: Homo sapiens, UCLA P-3; cell line UCLA-P3. The data set is classed as cell-based.
For a further data set, the system named is L-1210. Put plainly: Cytotoxicity against tumor cell lines: L-1210. The class given is cell-based. The note with it: Mus musculus, L1210; cell line L-1210.
The subject of another data set is 786-0. In words: Cytotoxicity against tumor cell lines: 786-0. The data set is classed as cell-based. The note with it: Homo sapiens; cell line 786-0.
Another data set has as its system SK-Mel-28. In words: Cytotoxicity against tumor cell lines: SK-Mel-28. The data set is classed as cell-based. Particulars: Homo sapiens; cell line SK-Mel-28.
The next data set relates to SK-NH-SH. In words: Cytotoxicity against tumor cell lines: SK-NH-SH. The data set is classed as cell-based. Particulars: cell line SK-NH-SH.
The next data set deals with BT-549. In words: Cytotoxicity against tumor cell lines: BT-549. The data set is classed as cell-based. Particulars: Homo sapiens; cell line BT-549.
For a further data set, the system named is A-549. In words: Cytotoxicity against tumor cell lines: A-549. The data set is classed as cell-based. The note with it: Homo sapiens, A549; cell line A-549.
A further data set concerns SIH-A. In words: Cytotoxicity against tumor cell lines: SIH-A. The data set is classed as cell-based. Particulars: Homo sapiens, SiHa; cell line SIH-A.
The subject of data set [1] is a variety of tumor cell lines. Put plainly: Cytotoxicity against a variety of tumor cell lines (in words). The note with it: 15 and 15' under the same conditions.

Broadly, the IC50 is the concentration at which inhibition is half-maximal. A lower IC50 goes with greater potency in that assay.

In the case of `CC(=O)O[C@H]1C(=O)[C@@]2(C)[C@H]([C@H](OC(=O)c3ccccc3)[C@]3(O)C[C@H](OC(=O)[C@H](O)[C@@H](NC(=O)c4ccccc4)c4ccccc4)C(C)=C1C3(C)C)[C@]1(OC(C)=O)CO[C@@H]1C[C@@H]2O` [Taxol, reference compound], the IC50 in the data set with HT-29 came out at 51 nM; in the data set on Ovcar 3, 0.62 nM; in the data set with UCLA-P3, 6.4 nM; in the data set on L-1210, 7 nM; in the data set on 786-0, 2200 nM; in the data set with SK-Mel-28 it was 120 nM. For the same compound, the results for the 50% inhibitory concentration (IC50) with SK-NH-SH and with BT-549 were 0.62 nM and 0.5 nM, respectively.

Regarding `CC(=O)O[C@@H]1C2=C(C)[C@@H](OC(=O)[C@H](O)[C@@H](NC(=O)c3ccccc3)c3ccccc3)C[C@@](O)([C@@H](OC(=O)c3ccccc3)c3ccccc3[C@H]1OC(C)=O)C2(C)C` [Compound 15], the IC50 in the data set with HT-29 came out at 129 nM; in the data set on Ovcar 3, 280 nM; in the data set on UCLA-P3, 296 nM; in the data set with A-549, 645 nM; in the data set on L-1210, 1110 nM; with SIH-A, 1290 nM. The IC50 in the data set on 786-0 worked out at 1930 nM; in the data set with SK-Mel-28, 2710 nM; in the data set on SK-NH-SH, 4910 nM; in the data set with BT-549 it was 5300 nM. Moreover, the figures for the “cytotoxicity against a variety of tumor cell lines” value in [1] and in [1] (listed as 15') were “significant cytotoxicity” and “essentially no cytotoxicity”, respectively.
